Assay [1] concerns Cord blood-derived CD34+ cells. Nature of the assay: Proliferation of typical CD34+ cell culture with or without TGF-β inhibitor and PPAR-α agonist (cumulative cell number). The class given is cell-based, human. Here is the method:
HSCs were cultured for one to three days in a medium containing StemSpan SFEM (Stemcell Technologies) with 6 IU/ml EPO (Calbiochem, San Diego, CA), 100 ng/ml SCF (R&D Systems, Minneapolis, MN), and 10 ng/ml IL-3 (R&D Systems). Then, 5×10^4 cells were transduced with the virus concentrated in the above culture medium and polybrenc (8 μg/ml, Sigma). The multiplicity of infection (MOI) of the virus during transduction was calculated to be 15 to 30. 24 hours after the transduction, the medium was replaced with a fresh virus-free medium, and from day 5 of culture, the StemSpan SFEM medium was supplemented with 3 IU/ml EPO, 50 ng/ml SCF, 10^−6 M dexamethasone, and 250 nM TGF-β inhibitor (LY2157299, PeproTech, Rocky Hill, NJ), 10 μM PPAR-α agonist (GW7647, Sigma), and 1 μg/ml doxycycline (Takara Bio Inc.) to induce selective expression of HPV16 E6/E7 in the transduced cells. The efficiency of transduction was confirmed on day 7 of culture through GFP fluorescence expression of GFP-transduced cells, and the cells were maintained at a concentration of 2 to 3×10^5 cells/ml while replacing the medium with a fresh medium every two to three days. In addition, to obtain the cell proliferation and survival rate, the cells were stained with trypan blue (Gibco) and counted. […]

Assay [2] concerns Cord blood-derived CD34+ cells. Nature of the assay: Flow cytometry of CD71 marker: proportion of immature erythroblasts. The class given is cell-based, human. The conditions noted are these: day 17, flow cytometry. Here is the method:
The following antibodies were used: glycophorin A (GPA; CD235a)-FITC (Life Technologies Inc., Gaithersburg, MD); and CD71-PE (BioLegend Inc., San Diego, CA). The cells were washed with 0.1% BSA, then antibodies were added and stained for 15 minutes at 4° C., while blocking light. In addition, a fluorescence microscope (Nikon Eclipse Ti; Nikon Corporation) was used to confirm the GFP fluorescence expressed in the cells cultured in the plate.
There is an TGF-β inhibitor (LY2157299) which is known to be effective in the maintenance and proliferation of immature erythroblasts, and a PPAR-α agonist (GW7647) that may have a synergistic effect on the proliferation of immature erythroblasts with glucocorticoid was explored, and an experiment was performed on the effects of the two substances. First, the two substances were added to a typical CD34+ cell culture under different conditions and cultured. In terms of cell proliferation, the cells proliferated the most by 1,500-fold by day 15 of culture when the culture was performed by adding the two substances together, and the cells proliferated by 1,000-fold by day 13 of culture in the experimental group where only the TGF-β inhibitor was added. […]

Where two headings read alike, the source gives them in different places.

From the text for E6/E7-transduced cells: Some of the cells in culture were spread on a slide using a cell centrifuge (Cellspin; Hanil Science Industrial Co. Ltd., Incheon, Korea) and stained with a Wright-Giemsa stain (Sigma), and the state, shape, and maturity of the cells were confirmed in a blind manner. Cell photos were taken using an optical microscope (Nikon Eclipse TE2000-U; Nikon Corporation).
In addition, the immature erythroblast marker CD71 was attached to the proliferating cells, and the proportion of immature erythroblasts was confirmed through flow cytometry.

For `CC(C)(Sc1ccc(CCN(CCCCC2CCCCC2)C(=O)NC2CCCCC2)cc1)C(=O)O` [PPAR-α agonist, GW7647], in assay [1] (day not given), the proliferation rate worked out at 500 fold. Further, the “proportion of immature erythroblasts (CD71)” value in assay [2] stood at 53%.
`Cc1cccc(-c2nn3c(c2-c2ccnc4ccc(C(N)=O)cc24)CCC3)n1` [TGF-β inhibitor, LY2157299]: the “immature erythroblasts, % of all cells” value in the assay with E6/E7-transduced cells (day 28 of culture) came out at 26.7%; in the assay on E6/E7-transduced cells (day 33 of culture), 15.2%. The cell proliferation in assay [1] (by day 13 of culture) is 1,000 fold.

(Values after patent publication US20250027045A1, “ESTABLISHMENT OF ERYTHROID PRECURSOR CELL LINE CAPABLE OF CONDITIONAL MATURATION USING GENE OVEREXPRESSION” (IUCF-HYU (INDUSTRY-UNIVERSITY COOPERATION FOUNDATION …, priority 2021, published 2025).)
